These are literature values, as cited in patent publication US20250065012A1, “DIRECTIONAL AND TEMPORAL RELEASE OF DRUGS FROM MEDICAL DEVICES” (NANO THERAPEUTICS PRIVATE LIMITED, priority 2022, published 2025).

Where a name gives a salt, the structure may show the parent alone.

For data set [1] the following is noted: injected intravenously.
The subject of the next data set is platelet aggregation. The conditions noted are these: after systemic administration.

Regarding `CCCCS(=O)(=O)N[C@@H](Cc1ccc(OCCCCC2CCNCC2)cc1)C(=O)O` [Tirofiban HCl], in data set [1], the “increase in bleeding time” value was 3-4 fold and the “increase in clotting time” value is recorded as 3-4 fold.

Consider `CCCCS(=O)(=O)N[C@@H](Cc1ccc(OCCCCC2CCNCC2)cc1)C(=O)O` [Tirofiban], for which, in the data set on platelet aggregation, the platelet aggregation inhibition result is reported as “up to 96%”.
